Experimental data as given in the supplement of paper PMC5908809.

Tests used:
Assay in all cases: relative IC50 (inflection point of fitted viability curve, relative to fitted max inhibition); higher = less sensitive
Conditions in all cases: 72 h
[1] = tested on: normal primary NK cells, pool 1 (3 donors), resting (IL-2 0 ng/mL)
Protocol: (§1)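 Drug sensitivity and resistance testing: 5 concentrations over a 10,000-fold range, 72 h at 37 °C, viability by CellTiter-Glo normalised to DMSO and benzethonium chloride controls. IC50 is the inflection point of a logistic fit (min fixed at 0, max fitted), so it is relative to the fitted maximal inhibition. Kept only where fitted max inhibition is at least 50%.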

NK-92 (IL-2 2.5 ng/mL) = tested on: NK-92 (IL-2 2.5 ng/mL)
Protocol: as §1

IMC-1 (IL-2 20 ng/mL) = tested on: IMC-1 (IL-2 20 ng/mL)
Protocol: as §1

[2] = tested on: normal primary NK cells, pool 1 (3 donors) (IL-2 2.5 ng/mL)
Protocol: as §1

NKL (IL-2 2.5 ng/mL) = tested on: NKL (IL-2 2.5 ng/mL)
Protocol: as §1

NK-YS (IL-2 2.5 ng/mL) = tested on: NK-YS (IL-2 2.5 ng/mL)
Protocol: as §1

[3] = tested on: normal primary NK cells, pool 3 (3 donors) (IL-2 2.5 ng/mL)
Protocol: as §1

KAI3 (IL-2 2.5 ng/mL) = tested on: KAI3 (IL-2 2.5 ng/mL)
Protocol: as §1

SNK-6 (IL-2 2.5 ng/mL) = tested on: SNK-6 (IL-2 2.5 ng/mL)
Protocol: as §1

YT (IL-2 2.5 ng/mL) = tested on: YT (IL-2 2.5 ng/mL)
Protocol: as §1

KHYG-1 (IL-2 2.5 ng/mL) = tested on: KHYG-1 (IL-2 2.5 ng/mL)
Protocol: as §1

DERL-7 (IL-2 2.5 ng/mL) = tested on: DERL-7 (IL-2 2.5 ng/mL)
Protocol: as §1

[4] = tested on: normal primary NK cells, pool 2 (3 donors) (IL-2 2.5 ng/mL)
Protocol: as §1

Compound	relative IC50 [1]	relative IC50 (NK-92 (IL-2 2.5 ng/mL))	relative IC50 (IMC-1 (IL-2 20 ng/mL))	relative IC50 [2]	relative IC50 (NKL (IL-2 2.5 ng/mL))	relative IC50 (NK-YS (IL-2 2.5 ng/mL))	relative IC50 [3]	relative IC50 (KAI3 (IL-2 2.5 ng/mL))	relative IC50 (SNK-6 (IL-2 2.5 ng/mL))	relative IC50 (YT (IL-2 2.5 ng/mL))	relative IC50 (KHYG-1 (IL-2 2.5 ng/mL))	relative IC50 (DERL-7 (IL-2 2.5 ng/mL))	relative IC50 [4]
CCc1cncnc1N1CCN(Cc2nc3ccc(C(F)(F)F)cc3[nH]2)CC1	1.82 µM	1.46 µM	2.14 µM	1.79 µM	1.84 µM	–	–	–	–	–	–	–	–
CN1CCC(COc2cnc(-c3cccc(Cn4nc(-c5cccc(C#N)c5)ccc4=O)c3)nc2)CC1	–	–	> 1 µM	–	–	> 1 µM	> 1 µM	> 1 µM	–	–	–	–	–
COCC(=O)NC/C=C/c1ccc2ncnc(Nc3ccc(Oc4ccc(C)nc4)c(C)c3)c2c1	0.834 µM	1.47 µM	2.92 µM	–	2.07 µM	–	–	1.87 µM	3.27 µM	–	–	–	–
C[C@@]1(C(=O)Nc2ccc(F)nc2)CCCN1c1nc(Nc2cc(C3CC3)n[nH]2)c2cccn2n1	3.42 µM	0.617 µM	2.85 µM	–	–	0.412 µM	–	–	0.63 µM	0.904 µM	1.15 µM	0.29 µM	–
Cc1cnc(Nc2ccc(OCCN3CCCC3)cc2)nc1Nc1cccc(S(=O)(=O)NC(C)(C)C)c1	0.715 µM	1.33 µM	–	0.262 µM	0.112 µM	0.534 µM	–	0.203 µM	0.876 µM	0.977 µM	0.262 µM	0.233 µM	–
Cn1cc(-c2ccc3nnc(C(F)(F)c4ccc5ncccc5c4)n3n2)cn1	> 10 µM	–	–	–	–	–	–	–	–	–	–	–	–
N#Cc1ccc(COC[C@H]2O[C@@H](n3c(NCc4ccc(Cl)c(Cl)c4)nc4c(N)ncnc43)[C@H](O)[C@@H]2O)cc1	–	–	3.86 µM	–	–	1.31 µM	> 10 µM	–	1.15 µM	1.71 µM	1.81 µM	–	–
Cc1sc2c(c1C)C(c1ccc(Cl)cc1)=N[C@@H](CC(=O)OC(C)(C)C)c1nnc(C)n1-2 [(+)JQ1]	1.08 µM	–	–	0.546 µM	0.113 µM	0.231 µM	–	0.362 µM	0.215 µM	0.238 µM	0.165 µM	0.0769 µM	–
Cc1ccccc1C(C(=O)NC1CCCCC1)N(C(=O)Cn1ccnc1C)c1cccc(F)c1 (centres undefined) [AGI-5198]	–	–	–	> 10 µM	–	–	–	–	–	–	–	–	–
CNC(=O)c1cccc(-c2ccc3c(N4CCOC[C@@H]4C)nc(N4CCOC[C@@H]4C)nc3n2)c1 [AZD2014]	–	0.317 µM	–	–	0.0367 µM	0.266 µM	–	0.0248 µM	0.117 µM	0.295 µM	0.714 µM	0.137 µM	–
C[C@@H](Nc1cc(F)cc(F)c1)c1cc(C(=O)N(C)C)cc2c(=O)cc(N3CCOCC3)oc12 [AZD-8186]	–	–	> 1 µM	–	> 1 µM	–	> 1 µM	–	–	–	–	–	–
CCN1CCN(Cc2ccc(Nc3ncc(F)c(-c4cc(F)c5nc(C)n(C(C)C)c5c4)n3)nc2)CC1 [Abemaciclib]	> 2.5 µM	–	0.978 µM	–	–	0.446 µM	–	–	–	–	0.236 µM	0.13 µM	0.743 µM
CCc1cc2c(cc1N1CCC(N3CCOCC3)CC1)C(C)(C)c1[nH]c3cc(C#N)ccc3c1C2=O [Alectinib]	–	–	–	–	–	–	> 1 µM	–	> 1 µM	–	–	–	–
O=C1CN2Cc3c(ccc(Cl)c3Cl)N=C2N1 [Anagrelide]	–	–	–	–	–	–	> 10 µM	–	–	–	–	–	–
CC[C@@H]1C(=O)N(C)c2cnc(Nc3ccc(C(=O)NC4CCN(C)CC4)cc3OC)nc2N1C1CCCC1 [BI 2536]	–	0.0114 µM	0.0148 µM	–	0.00981 µM	0.0135 µM	–	0.00837 µM	0.00457 µM	0.0263 µM	0.0221 µM	0.00862 µM	0.218 µM
O=C(Nc1cccc(Nc2ncc(Br)c(NCCc3cnc[nH]3)n2)c1)N1CCCC1 [BX-912]	–	1.17 µM	0.735 µM	1.27 µM	1.01 µM	1.85 µM	1.42 µM	0.474 µM	0.482 µM	1.51 µM	0.507 µM	1.06 µM	1.17 µM
CC[C@H](NC(=O)[C@H](C)NC)C(=O)N1C[C@@H](O)C[C@H]1Cc1c(-c2[nH]c3cc(F)ccc3c2C[C@@H]2C[C@H](O)CN2C(=O)[C@H](CC)NC(=O)[C@H](C)NC)[nH]c2cc(F)ccc12 [Birinapant]	0.338 µM	–	–	0.311 µM	–	> 1 µM	–	–	> 1 µM	–	–	–	0.278 µM
Nc1cc(C(F)(F)F)c(-c2cc(N3CCOCC3)nc(N3CCOCC3)n2)cn1 [Buparlisib]	–	0.734 µM	3.9 µM	–	0.269 µM	0.52 µM	–	0.887 µM	0.0429 µM	1.21 µM	0.781 µM	1.07 µM	–
CS(=O)(=O)OCCCCOS(C)(=O)=O [Busulfan]	–	36.4 µM	26.9 µM	–	27.3 µM	29.6 µM	–	24.6 µM	15.8 µM	–	26.6 µM	–	35.6 µM
CC[C@@]1(O)C(=O)OCc2c1cc1n(c2=O)Cc2cc3ccccc3nc2-1 [Camptothecin]	–	0.00592 µM	0.0142 µM	–	0.00147 µM	0.00356 µM	0.278 µM	0.00088 µM	0.0031 µM	0.0184 µM	0.00495 µM	0.00921 µM	0.547 µM
O=C(O)C1(C(=O)O)CCC1.[NH2-].[NH2-].[Pt+2] [Carboplatin]	–	–	8.07 µM	–	–	–	16 µM	–	–	–	–	–	16.6 µM
COc1cc2c(Oc3ccc4[nH]c(C)cc4c3F)ncnc2cc1OCCCN1CCCC1 [Cediranib]	–	–	–	–	–	–	> 1 µM	–	–	–	–	–	–
O=P1(N(CCCl)CCCl)NCCCO1 (centres undefined) [Cyclophosphamide]	5.79 µM	–	> 40 µM	–	–	–	–	–	–	> 40 µM	> 40 µM	–	–
Nc1ccn([C@@H]2O[C@H](CO)[C@@H](O)[C@@H]2O)c(=O)n1 [Cytarabine]	1.23 µM	0.096 µM	0.0854 µM	1.44 µM	0.0671 µM	0.33 µM	2.37 µM	0.05 µM	0.193 µM	–	0.0273 µM	0.023 µM	1.9 µM
CC(=O)O[C@@]12CO[C@@H]1C[C@H](O)[C@@]1(C)C(=O)[C@H](O)C3=C(C)[C@@H](OC(=O)[C@H](O)[C@@H](NC(=O)OC(C)(C)C)c4ccccc4)C[C@@](O)([C@@H](OC(=O)c4ccccc4)[C@H]21)C3(C)C [Docetaxel]	–	0.0109 µM	0.00314 µM	–	0.00184 µM	0.00202 µM	–	0.00214 µM	0.0008 µM	0.00224 µM	0.0039 µM	0.00318 µM	–
CN1CCN(c2ccc3nc(-c4c(N)c5c(F)cccc5[nH]c4=O)[nH]c3c2)CC1 [Dovitinib]	1.86 µM	–	> 10 µM	–	1.9 µM	–	–	–	> 10 µM	–	–	–	–
Cc1cc(C)c(CNC(=O)c2cc(-c3ccc(CN4CCOCC4)cc3)cc3c2cnn3C2CCCC2)c(=O)[nH]1 [EPZ-5687]	–	> 10 µM	> 10 µM	–	> 10 µM	–	> 10 µM	–	–	–	–	–	> 10 µM
C[C@]12CC[C@@H]3c4ccc(OC(=O)N(CCCl)CCCl)cc4CC[C@H]3[C@@H]1CC[C@@H]2O [Estramustine]	–	–	> 10 µM	–	–	–	> 10 µM	–	–	–	–	–	–
C=C1C[C@@H]2[C@H](CC[C@]3(C)C(=O)CC[C@@H]23)[C@@]2(C)C=CC(=O)C=C12 [Exemestane]	3.29 µM	–	–	–	–	–	–	–	–	–	–	–	–
Cc1cnc(Nc2ccc(OCCN3CCCC3)cc2)nc1Nc1cccc(S(=O)(=O)NC(C)(C)C)c1 [Fedratinib]	–	–	0.929 µM	–	–	–	0.479 µM	–	–	–	–	–	0.462 µM
